Molecules are shown by their SMILES.

The term logP denotes the decadic logarithm of the partition coefficient of the neutral form, usually between octanol and water.

The data set in a line: log P by HPLC on reversed-phase column (C 18), EEC Directive 79/831 Annex V.A8. It counts as physicochemical. The following applies: 40° C., 0.1% aqueous formic acid and acetonitrile, linear gradient 10% to 90% acetonitrile. Here is the method: In table 1, the log P values were determined in accordance with EEC Directive 79/831 Annex V.A8 by HPLC (High Performance Liquid Chromatography) on a reversed-phase column (C 18), using the method described below:
Temperature: 40° C.; Mobile phases: 0.1% aqueous formic acid and acetonitrile; linear gradient from 10% acetonitrile to 90% acetonitrile.
Calibration was carried out using unbranched alkan-2-ones (comprising 3 to 16 carbon atoms) with known log P values (determination of the log P values by the retention times using linear interpolation between two successive alkanones). lambda-max-values were determined using UV-spectra from 200 nm to 400 nm and the peak values of the chromatographic signals.

Turning to `C[Si](C)(CN(C(=O)c1cccnc1Cl)C1CC1)c1ccccc1` [Example 4], the logP was 3.50. The same measure for `CC1=C(C(=O)NC[Si](C)(C)c2ccccc2)SCCO1` [Example 6]: 3.13. The same measure for `CCc1ccccc1[Si](C)(C)CN(C(=O)c1cccnc1Cl)C1CC1` [Example 18]: 4.16; for `CCc1ccccc1[Si](C)(C)CN(C(=O)c1cccnc1C(F)F)C1CC1` [Example 19]: 4.06. The same measure for `C[Si](C)(CN(C(=O)c1cccnc1Cl)C1CC1)c1ccccc1Cl` [Example 23]: 3.94; for `C[Si](C)(CN(C(=O)c1ccccc1I)C1CC1)c1ccccc1Cl` [Example 24]: 5.14; for `C[Si](C)(CN(C(=O)c1ccccc1C(F)(F)F)C1CC1)c1ccccc1Cl` [Example 25]: 5.03. `C[Si](C)(CN(C(=O)c1cccnc1C(F)(F)F)C1CC1)c1ccccc1Cl` [Example 27] had a lipophilicity (logP) of 4.31. `C[Si](C)(CN(C(=O)c1ccccc1I)C1CC1)c1cccc(Cl)c1` [Example 30]: the logP amounted to 5.14.

`C[Si](C)(CN(C(=O)c1ccccc1C(F)(F)F)C1CC1)c1cccc(Cl)c1` [Example 31] had a logP of 5.03. Take `C[Si](C)(CN(C(=O)c1cccnc1Cl)C1CC1)c1cccc(Cl)c1` [Example 35]: the lipophilicity (logP) is reported as 3.96.

In the case of `CC[Si](C)(CN(C(=O)c1cccnc1C(F)(F)F)C1CC1)c1ccccc1Cl` (stereo not shown) [Example 37], the logP is reported as 4.71. For the compound `CC1=C(C(=O)N(C[Si](C)(C)c2ccccc2Cl)C2CC2)SCCO1` [Example 43], the logP worked out at 4.29. The same measure for `C[Si](C)(CN(C(=O)c1cccnc1Cl)C1CC1)c1ccccc1C(F)(F)F` [Example 53]: 4.04. To `C[Si](C)(CNC(=O)c1cccnc1C(F)F)c1ccc(Cl)cc1Cl` [Example 57] belongs 3.64; to `C[Si](C)(CN(C(=O)c1cccnc1Cl)C1CC1)c1ccc(Cl)cc1Cl` [Example 59], 4.64.

The compound `C[Si](C)(CN(C(=O)c1ccccc1I)C1CC1)c1ccc(Cl)cc1Cl` [Example 60] displayed a logP of 5.88. For `C[Si](C)(CN(C(=O)c1ccccc1C(F)(F)F)C1CC1)c1ccc(Cl)cc1Cl` [Example 61], the logP was determined as 5.72. Regarding `C[Si](C)(CN(C(=O)c1nccnc1C(F)(F)F)C1CC1)c1cc(Cl)cc(Cl)c1` [Example 64], the logP was determined as 4.95. To `C[Si](C)(CN(C(=O)c1cccnc1Cl)C1CC1)c1cc(Cl)cc(Cl)c1` [Example 65] belongs 4.61; to `C[Si](C)(CN(C(=O)c1ccccc1C(F)(F)F)C1CC1)c1cc(Cl)cc(Cl)c1` [Example 66], 5.65; to `C[Si](C)(CN(C(=O)c1cccnc1C(F)(F)F)C1CC1)c1cc(Cl)cc(Cl)c1` [Example 67], 4.95. On to `C[Si](C)(CN(C(=O)c1cccnc1Cl)C1CC1)c1cccc2ccccc12` [Example 69], for which the logP is recorded as 4.15.

`C[Si](C)(CN(C(=O)c1ccccc1I)C1CC1)c1cccc2ccccc12` [Example 70] gave a log partition coefficient (logP) of 5.31. Consider `C[Si](C)(CN(C(=O)c1ccccc1C(F)(F)F)C1CC1)c1cccc2ccccc12` [Example 71], for which the logP worked out at 5.19. Regarding `C[Si](C)(CN(C(=O)c1cccnc1C(F)(F)F)C1CC1)c1cccc2ccccc12` [Example 73], the logP is on record as 4.51. On to `C[Si](C)(CN(C(=O)c1cccnc1Cl)C1CC1)c1ccc2ccccc2c1` [Example 75], for which the log partition coefficient (logP) came out at 4.23. As for `C[Si](C)(CN(C(=O)c1ccccc1I)C1CC1)c1ccc2ccccc2c1` [Example 76], the lipophilicity (logP) is recorded as 5.36. The same measure for `C[Si](C)(CN(C(=O)c1ccccc1C(F)(F)F)C1CC1)c1ccc2ccccc2c1` [Example 80]: 5.25; for `C[Si](C)(CN(C(=O)c1cccnc1C(F)(F)F)C1CC1)c1cccs1` [Example 81]: 3.80; for `C[Si](C)(CN(C(=O)c1cccnc1Cl)C1CC1)c1cccs1` [Example 83]: 3.39. `C[Si](C)(CN(C(=O)c1ccccc1I)C1CC1)c1cccs1` [Example 84] had a lipophilicity (logP) of 4.59. The same measure for `C[Si](C)(CN(C(=O)c1ccccc1C(F)(F)F)C1CC1)c1cccs1` [Example 85]: 4.51; for `C[Si](C)(CN(C(=O)c1cccnc1Cl)C1CC1)c1ccsc1` [Example 88]: 3.33.

`C[Si](C)(CN(C(=O)c1ccccc1I)C1CC1)c1ccsc1` [Example 89] registered a log partition coefficient (logP) of 4.49. To `C[Si](C)(CN(C(=O)c1ccccc1C(F)(F)F)C1CC1)c1ccsc1` [Example 90] belongs 4.44. Consider `C[Si](C)(Cc1ccccc1)CN(C(=O)c1cccnc1Cl)C1CC1` [Example 94], for which the logP was 3.87. The same measure for `C[Si](C)(Cc1ccccc1)CN(C(=O)c1ccccc1I)C1CC1` [Example 95]: 5.00.

`C[Si](C)(Cc1ccccc1)CN(C(=O)c1ccccc1C(F)(F)F)C1CC1` [Example 96] had a logP of 4.90. In the case of `C[Si](C)(Cc1ccccc1)CN(C(=O)c1cccnc1C(F)(F)F)C1CC1` [Example 97], the log partition coefficient (logP) was 4.19.

As to `C[Si](C)(Cc1ccccc1Cl)CN(C(=O)c1cccnc1C(F)F)C1CC1` [Example 98], the logP is on record as 4.11. Turning to `C[Si](C)(Cc1ccccc1Cl)CN(C(=O)c1cccnc1Cl)C1CC1` [Example 100], the log partition coefficient (logP) is given as 4.25. As to `C[Si](C)(Cc1ccccc1Cl)CN(C(=O)c1ccccc1I)C1CC1` [Example 101], the logP is on record as 5.45. As to `C[Si](C)(Cc1ccccc1Cl)CN(C(=O)c1ccccc1C(F)(F)F)C1CC1` [Example 102], the logP came out at 5.31.

The compound `C[Si](C)(Cc1ccccc1Cl)CN(C(=O)c1cccnc1C(F)(F)F)C1CC1` [Example 103] returned a log partition coefficient (logP) of 4.59.

The compound `C[Si](C)(Cc1cccc(Cl)c1)CN(C(=O)c1cccnc1Cl)C1CC1` [Example 106] returned a log partition coefficient (logP) of 4.30. The same measure for `C[Si](C)(Cc1cccc(Cl)c1)CN(C(=O)c1ccccc1I)C1CC1` [Example 107]: 5.45; for `C[Si](C)(Cc1cccc(Cl)c1)CN(C(=O)c1ccccc1C(F)(F)F)C1CC1` [Example 108]: 5.31. The same measure for `C[Si](C)(Cc1cccc(Cl)c1)CN(C(=O)c1cccnc1C(F)(F)F)C1CC1` [Example 109]: 4.61; for `C[Si](C)(Cc1ccc(Cl)cc1Cl)CN(C(=O)c1cccnc1Cl)C1CC1` [Example 112]: 4.90; for `C[Si](C)(Cc1ccc(Cl)cc1Cl)CN(C(=O)c1ccccc1I)C1CC1` [Example 113]: 6.14.

Compound `C[Si](C)(Cc1ccc(Cl)cc1Cl)CN(C(=O)c1ccccc1C(F)(F)F)C1CC1` [Example 114] returned a logP of 5.94. To `C[Si](C)(Cc1ccc(Cl)cc1Cl)CN(C(=O)c1cccnc1C(F)(F)F)C1CC1` [Example 115] belongs 5.22.

`C[Si](C)(Cc1cc(Cl)cc(Cl)c1)CN(C(=O)c1nccnc1C(F)(F)F)C1CC1` [Example 116] came in with a lipophilicity (logP) of 5.45. To `C[Si](C)(Cc1cc(Cl)cc(Cl)c1)CN(C(=O)c1cccnc1Cl)C1CC1` [Example 118] belongs 4.92.
